This is an account of results in patent publication US12281122B1, “PI3K inhibitors” (Cogent Biosciences, Inc., priority 2023, dated 2025).

A value given as a limit tells only on which side of the number the result lay.

In assay [1] the test system is SKBR3 (PI3Kα-Wild Type) cell line. The experiment in a line: HTRF phospho-AKT(S473) cell assay in SKBR3 cells. Type of assay: cell-based, human. As to conditions: Homo sapiens, SK-BR-3, 2 hours compound incubation, PDGF-BB stimulated. In short, it runs like this:
(§1)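 Cells plated overnight (T47D in RPMI/10% FBS/0.2 units/mL insulin; SKBR3 in McCoy's 5A/10% FBS), then given 12-point 1:3 compound series (top 5 μM T47D, 10 μM SKBR3; ≤0.5% DMSO) for 2 h at 37° C. SKBR3 stimulated with 70 ng/ml PDGF-BB for final 15 min. Lysate pAKT(S473) by HTRF; IC50 calculated.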
For orientation: In TR-FRET formats the signal depends on donor and acceptor labels being close together.

Assay [2] deals with T47D (PI3Kα-H1047R) cell line. Description: HTRF phospho-AKT(S473) cell assay in T47D cells. Type of assay: cell-based, human. As to conditions: Homo sapiens, 2 hours compound incubation. In short, it runs like this: as §1
Setting [3] is: SKBR3 (PI3Kα-Wild Type) cells, HTRF phospho-AKT(S473).
The mark [4] stands for this setting: T47D (PI3Kα-H1047R) cells, HTRF phospho-AKT(S473).
Where [5] appears, read: HTRF phospho-AKT(S473), SKBR3 (PI3Kα-Wild Type) cells.
Where [6] appears, read: HTRF phospho-AKT(S473), T47D (PI3Kα-H1047R) cells.
Setting [7] is: SKBR3 (PI3Kα-Wild Type) cell line, phospho-AKT(S473) HTRF.
Setting [8] is: T47D (PI3Kα-H1047R) cell line, phospho-AKT(S473) HTRF.

One may read the IC50 as the concentration at which inhibition is half-maximal. The low end stands for higher potency, the high end for lower potency. `Cc1cc([C@@H](C)Nc2ccc(Cl)nc2C(=O)NS(C)(=O)=O)c2nc(N3Cc4cn(C5(C(F)(F)F)CC5)nc4C3)n(C)c(=O)c2c1` [Compound 185, (R)-6-chloro-3-((1-(3,6-dimethyl-4-oxo-2-(2-(1-(trifluoromethyl)cyclopropyl)-2,6-dihydropyrrolo[3,4-c]pyrazol-5(4H)-yl)-3,4-dihydroquinazolin-8-yl)ethyl)amino)-N-(methylsulfonyl) picolinamide]: the figures for the IC50 in assay [1] (setting [3]) and in assay [2] (setting [4]) were 1000 to 5000 nM and less than 250 nM, respectively.
For `Cc1cc([C@@H](C)Nc2ccc(Cl)nc2C(=O)NS(C)(=O)=O)c2nc(N3CCC(Nc4cnn(C)c4)CC3)n(C)c(=O)c2c1` [Compound 291, (R)-6-chloro-3-((1-(3,6-dimethyl-2-(4-((1-methyl-1H-pyrazol-4-yl)amino)piperidin-1-yl)-4-oxo-3,4-dihydroquinazolin-8-yl)ethyl)amino)-N-(methylsulfonyl) picolinamide] the same measures were 1000 to 5000 nM and less than 250 nM.
In the case of `Cc1cc([C@@H](C)Nc2ccc(Cl)nc2C(=O)NS(C)(=O)=O)c2nc(N3CCC(C)(c4cc[nH]n4)CC3)n(C)c(=O)c2c1` [Compound 552, (R)-6-chloro-3-((1-(3,6-dimethyl-2-(4-methyl-4-(1H-pyrazol-3-yl)piperidin-1-yl)-4-oxo-3,4-dihydroquinazolin-8-yl)ethyl)amino)-N-(methylsulfonyl) picolinamide], the figures for the IC50 in assay [1] (setting [5]) and in assay [2] (setting [6]) were no less than 5000 nM and 250 to 500 nM, respectively.
For the molecule `Cc1cc([C@@H](C)Nc2ccc(Cl)nc2C(=O)NS(C)(=O)=O)c2nc(N3CCC(c4csc(C)n4)CC3)n(C)c(=O)c2c1` [Compound 503, (R)-6-chloro-3-((1-(3,6-dimethyl-2-(4-(2-methylthiazol-4-yl)piperidin-1-yl)-4-oxo-3,4-dihydroquinazolin-8-yl)ethyl)amino)-N-(methylsulfonyl) picolinamide], the values for the IC50 in assay [1] (setting [5]) and in assay [2] (setting [6]) were 1000 to 5000 nM and less than 250 nM, respectively.
For `Cc1cc([C@@H](C)Nc2ccc(Cl)nc2C(=O)NS(C)(=O)=O)c2nc(N3C[C@@H]4[C@H](C3)[C@H]4c3nnc(C)n3C(F)F)n(C)c(=O)c2c1` [Compound 644, 6-chloro-3-(((R)-1-(2-((1R,5S,6R)-6-(4-(difluoromethyl)-5-methyl-4H-1,2,4-triazol-3-yl)-3-azabicyclo[3.1.0]hexan-3-yl)-3,6-dimethyl-4-oxo-3,4-dihydroquinazolin-8-yl)ethyl)amino)-N-(methylsulfonyl) picolinamide], in that order: no less than 5000 nM and 250 to 500 nM.
Take `Cc1cc([C@@H](C)Nc2ccc(Cl)nc2C(=O)NS(C)(=O)=O)c2nc(N3CCc4nocc4C3)n(C)c(=O)c2c1` [Compound 332, (R)-6-chloro-3-((1-(2-(6,7-dihydroisoxazolo[4,3-c]pyridin-5(4H)-yl)-3,6-dimethyl-4-oxo-3,4-dihydroquinazolin-8-yl)ethyl)amino)-N-(methylsulfonyl) picolinamide]: the IC50 in assay [1] (setting [3]) is 1000 to 5000 nM; in assay [2] (setting [4]) it was less than 250 nM.
Turning to `Cc1cc([C@@H](C)Nc2ccc(Cl)nc2C(=O)NS(C)(=O)=O)c2nc(N3CC[C@H](Nc4ncccn4)C3)n(C)c(=O)c2c1` [Compound 540, 6-chloro-3-(((R)-1-(3,6-dimethyl-4-oxo-2-((S)-3-(pyrimidin-2-ylamino)pyrrolidin-1-yl)-3,4-dihydroquinazolin-8-yl)ethyl)amino)-N-(methylsulfonyl) picolinamide], the half-maximal inhibitory concentration (IC50) was no less than 5000 nM in assay [1] (setting [5]) and 250 to 500 nM in assay [2] (setting [6]).
For `Cc1cc([C@@H](C)Nc2ccc(Cl)nc2C(=O)NS(C)(=O)=O)c2nc(N3CCC(c4nn(C)cc4Cl)CC3)n(C)c(=O)c2c1` [Compound 702, (R)-6-chloro-3-((1-(2-(4-(4-chloro-1-methyl-1H-pyrazol-3-yl)piperidin-1-yl)-3,6-dimethyl-4-oxo-3,4-dihydroquinazolin-8-yl)ethyl)amino)-N-(methylsulfonyl) picolinamide] the same measures were no less than 5000 nM and 250 to 500 nM.
For `COc1ccc([C@H]2[C@@H]3CN(c4nc5c([C@@H](C)Nc6ccc(Cl)nc6C(=O)NS(C)(=O)=O)cc(C)cc5c(=O)n4C)C[C@@H]32)cn1` [Compound 610, 6-chloro-3-(((R)-1-(2-((1R,5S,6S)-6-(6-methoxypyridin-3-yl)-3-azabicyclo[3.1.0]hexan-3-yl)-3,6-dimethyl-4-oxo-3,4-dihydroquinazolin-8-yl)ethyl)amino)-N-(methylsulfonyl) picolinamide], in that order: no less than 5000 nM and less than 250 nM.
Consider `Cc1cc([C@@H](C)Nc2ccc(Cl)nc2C(=O)NS(C)(=O)=O)c2nc(-c3ccc4nc(C)cn4c3)n(C)c(=O)c2c1` [Compound 844, (R)-6-chloro-3-((1-(3,6-dimethyl-2-(2-methylimidazo[1,2-a]pyridin-6-yl)-4-oxo-3,4-dihydroquinazolin-8-yl)ethyl)amino)-N-(methylsulfonyl) picolinamide], for which the IC50 in assay [1] (setting [7]) fell in the range of 1000 to 5000 nM; in assay [2] (setting [8]), 250 to 500 nM.
Take `Cc1cc([C@@H](C)Nc2ccc(Cl)nc2C(=O)NS(C)(=O)=O)c2nc(N3C[C@@H]4C[C@]4(c4cnc(C)cn4)C3)n(C)c(=O)c2c1` (relative stereo) [Compound 750, 6-chloro-3-(((R)-1-(3,6-dimethyl-2-((1R*,5R*)-1-(5-methylpyrazin-2-yl)-3-azabicyclo[3.1.0]hexan-3-yl)-4-oxo-3,4-dihydroquinazolin-8-yl)ethyl)amino)-N-(methylsulfonyl) picolinamide]: the values for the IC50 in assay [1] (setting [5]) and in assay [2] (setting [6]) were no less than 5000 nM and 250 to 500 nM, respectively.
Consider `Cc1cc([C@@H](C)Nc2ccc(Cl)nc2C(=O)NS(C)(=O)=O)c2nc(-c3cnc(N(C)C)nc3)n(C)c(=O)c2c1` [Compound 852, (R)-6-chloro-3-((1-(2-(2-(dimethylamino)pyrimidin-5-yl)-3,6-dimethyl-4-oxo-3,4-dihydroquinazolin-8-yl)ethyl)amino)-N-(methylsulfonyl) picolinamide], for which the figures for the IC50 in assay [1] (setting [7]) and in assay [2] (setting [8]) were no less than 5000 nM and 250 to 500 nM, respectively.
As to `Cc1cc([C@@H](C)Nc2ccc(Cl)nc2C(=O)NS(C)(=O)=O)c2nc(N3CC[C@@H](Oc4cnc(C)cn4)C3)n(C)c(=O)c2c1` [Compound 672, 6-chloro-3-(((R)-1-(3,6-dimethyl-2-((R)-3-((5-methylpyrazin-2-yl)oxy)pyrrolidin-1-yl)-4-oxo-3,4-dihydroquinazolin-8-yl)ethyl)amino)-N-(methylsulfonyl) picolinamide], the results for the IC50 in assay [1] (setting [5]) and in assay [2] (setting [6]) were 1000 to 5000 nM and less than 250 nM, respectively.
For `Cc1cc([C@@H](C)Nc2ccc(Cl)nc2C(=O)NS(C)(=O)=O)c2nc(N3CC[C@H](Nc4ncc(Cl)cn4)C3)n(C)c(=O)c2c1` [Compound 738, 6-chloro-3-(((R)-1-(2-((S)-3-((5-chloropyrimidin-2-yl)amino)pyrrolidin-1-yl)-3,6-dimethyl-4-oxo-3,4-dihydroquinazolin-8-yl)ethyl)amino)-N-(methylsulfonyl) picolinamide] the same measures were no less than 5000 nM and 250 to 500 nM.
Take `Cc1cc([C@@H](C)Nc2ccc(Cl)nc2C(=O)NS(C)(=O)=O)c2nc(N3CCC(c4c(C)nn(C)c4C)CC3)n(C)c(=O)c2c1` [Compound 226, (R)-6-chloro-3-((1-(3,6-dimethyl-4-oxo-2-(4-(1,3,5-trimethyl-1H-pyrazol-4-yl)piperidin-1-yl)-3,4-dihydroquinazolin-8-yl)ethyl)amino)-N-(methylsulfonyl) picolinamide]: the IC50 in assay [1] (setting [3]) was 1000 to 5000 nM; in assay [2] (setting [4]), less than 250 nM.
For `Cc1cc([C@@H](C)Nc2ccc(Cl)nc2C(=O)NS(C)(=O)=O)c2nc(N3CCC(c4nc(C(F)F)n(C)n4)CC3)n(C)c(=O)c2c1` [Compound 434, (R)-6-chloro-3-((1-(2-(4-(5-(difluoromethyl)-1-methyl-1H-1,2,4-triazol-3-yl)piperidin-1-yl)-3,6-dimethyl-4-oxo-3,4-dihydroquinazolin-8-yl)ethyl)amino)-N-(methylsulfonyl) picolinamide], in that order: no less than 5000 nM and 500 to 1000 nM.
`Cc1cc([C@@H](C)Nc2ccc(Cl)nc2C(=O)NS(C)(=O)=O)c2nc(N3CCC(c4ncc(C5CC5)cn4)CC3)n(C)c(=O)c2c1` [Compound 509, (R)-6-chloro-3-((1-(2-(4-(5-cyclopropylpyrimidin-2-yl)piperidin-1-yl)-3,6-dimethyl-4-oxo-3,4-dihydroquinazolin-8-yl)ethyl)amino)-N-(methylsulfonyl) picolinamide]: the values for the IC50 in assay [1] (setting [5]) and in assay [2] (setting [6]) were no less than 5000 nM and 250 to 500 nM, respectively.
For `[2H]C([2H])([2H])n1nccc1[C@H]1[C@@H]2CN(c3nc4c([C@@H](C)Nc5ccc(Cl)nc5C(=O)NS(C)(=O)=O)cc(C)cc4c(=O)n3C)C[C@@H]21` [Compound 494, 6-chloro-3-(((R)-1-(3,6-dimethyl-2-((1R,5S,6R)-6-(1-(methyl-d3)-1H-pyrazol-5-yl)-3-azabicyclo[3.1.0]hexan-3-yl)-4-oxo-3,4-dihydroquinazolin-8-yl)ethyl)amino)-N-(methylsulfonyl) picolinamide], in that order: 1000 to 5000 nM and less than 250 nM.
